The test system of experiment [1] is heart. Put plainly: heterotopic rat cardiac transplant, nitric oxide series, graft survival/score. Type of experiment: in vivo, rat (male Sprague-Dawley). The following applies: for graft survival: NTG 0.1 mg/ml where added. From the text:
Male Sprague-Dawley rats (350 grams, Camm Research, Wayne, N.J.) were used, and harvest, preservation, and transplantation procedures performed as described^8. Preservation solutions included lactated Ringer's (LR) solution (Baxter, Edison, N.J.), or LR supplemented with nitroglycerin (DuPont, Wilmington, Del.), sodium nitroprusside (Roche Laboratories, Nutley, N.J.), N^G -monomethyl-L-arginine (L-NMMA; Chembiochem, Salt Lake City, Utah), L-arginine (Sigma Chemical Co., St. Louis, Mo.), or 8-bromoguanosine3',5'monophosphate (8-Br-cGMP; Sigma). Components were combined within 4 hrs of donor cardiectomy, and preservation solutions were kept at 4° C. All of these solutions were at the pH of LR (6.6). University of Wisconsin solution (UW) was purchased from Dupont. […] Ten minutes after removal of the cross-clamp, an electrocardiogram was taken (Grass Polygraph, Quincy, Mass.) and the heart was judged by the same blinded investigators throughout based on the presence/absence of regular contractions and a transplant score (0-5, worst-best, respectively) employing the following criteria: contraction (poor=0, average=1, vigorous=2), tissue turgor (hard=0, average=1, soft=2), and color (dusky=0, pink=1).
Graft survival data was analyzed by contingency analysis (chi-square). Transplant scores, microsphere perfusion, myeloperoxidase, NO synthase, and platelet serotonin release data were analyzed using ANOVA for unpaired variables with the Tukey test used to discriminate significant differences between group means. Values are expressed as means ±SEM, with a p<0.05 considered statistically significant.

Experiment [2] concerns nitric oxide synthase. Nature of the experiment: cardiac nitric oxide synthase activity (L-arginine to L-citrulline conversion). It is filed as biochemical, rat. To be noted: LR with vs without supplement, 12 h. The protocol:
Hearts were either freshly explanted, preserved, or preserved/transplanted (with 10 min. of reperfusion), after which they were excised. The coronary arteries were flushed with physiologic saline, the atria and great vessels excised, and the ventricular cavities rinsed free of residual intracavitary blood. Samples were flash-frozen in liquid nitrogen and stored at -80° C. until the time of assay. Extracts were prepared by homogenizing tissue at 4° C. in the presence of protease inhibitors (aprotinin, epsilon amino caproic acid, PMSF, pepstatin A, and chymostatin), and centrifuging (20,000 rpm×20 min) to remove cellular debris. The extract (20 μg of protein by the method of Lowry^15) was incubated for 60 min. in the presence of CaCl2 (10 μM), FAD (8 μM), dithiothreitol (60 μM)(Sigma), tetrahydrobiopterin (8 μM; B. Schirks, Switzerland), and ^3 H-L-arginine (0.072 μM, 5 μCi;, Amersham, Arlington Heights, Ill.). Thin layer chromatography (TLC) was performed with 5 μl of the reaction mix, using methanol:chloroform:water:ammonium hydroxide (9:2:8:3) as the running solvent. Silica gel TLC plates (Sigma) were stained with ninhydrin (1 g/500 ml ethanol) and the spots corresponding to L-arginine, L-ornithine, and L-citrulline cut out and counted. […] Results are expressed as the mean ±SEM of 3 determinations.

For experiment [3], the system named is cGMP-regulated phosphodiesterases. To be noted: cited from earlier work.
Experiment [4] has as its system cardiac graft vasculature. Put plainly: perfusion of donor grafts by microspheres, nitric oxide series. Type of experiment: in vivo, rat. The following applies: 12 h preservation in LR. On the procedure: Ten minutes after restoration of blood flow, 0.5 ml of 10 μm diameter microspheres (10^6 /ml) (E-Z Trac, Los Angeles, Calif.) was injected into the donor aortic root. Deposition of microspheres in ventricular tissue was assessed following alkaline hydrolysis, washing, and counting of microspheres as described^8, with results expressed as number of spheres per (40×) field per gram of ventricle. A minimum of ten fields were counted and the mean ±SEM is reported.

For experiment [5], the system named is platelet accumulation in lung graft. Nature of the experiment: graft platelet accumulation (111Indium-labelled platelets). It is filed as in vivo, rat. To be noted: NTG 0.1 mg/mL in EC, 6 h. On the procedure: Graft platelet accumulation was determined using ^111 Indium-labelled platelets, prepared as described^39. Blood (5.0 mL) was taken from a gender/strain matched donor rat and heparinized (2500 units). Platelets were isolated by differential centrifugation, first at 300 g for 5 minutes to obtain platelet-rich plasma, which was then washed 3 times at 2,000 g for 15 minutes in 10 ml of acid-citrate-dextrose-anticoagulant (ACD-A; citric acid 38 mM, sodium citrate 75 mM, glucose 135 mM). The pellet was suspended in 5 mL of ACD-A, centrifuged at 100 g for 5 minutes to remove contaminating red blood cells, and the supernatant collected. ^111 Indium oxyquinoline (70 μL of 1 mCi/mL, Amersham Mediphysics, Arlington Heights, Ill.) was added with gentle shaking for 30 minutes at room temperature. […] One minute following platelet infusion (immediately prior to reperfusion), 0.5 mL of blood was taken from the left atrium to determine blood radioactivity, to ascertain blood platelet concentrations to normalize for variations in blood loss during surgery. Five minutes following reperfusion, the native right pulmonary artery was ligated, the graft was removed 10 minutes thereafter, and ^111 Indium-platelet deposition quantified by gamma counting. Platelet accumulation was expressed as the ratio of graft radioactivity to blood radioactivity normalized to dry weight.

Experiment [6] has as its system graft tissue oxidant stress. Nature of the experiment: thiobarbituric acid reactive substances (TBARs). It is filed as in vivo, rat. The following applies: NTG in EC, 6 h. The protocol:
Thirty minutes following ligation of the native right pulmonary artery, or at the time of recipient death, transplanted lungs were removed, rinsed briskly in physiologic saline, and snap frozen in liquid nitrogen until the time of myeloperoxidase or TBARs assay.
The assay was performed by homogenizing tissue in 1.15% KCl (10 ml/gm of tissue). To 0.2 ml of 10% (w/v) tissue homogenate, the following was added; 0.2 mL of 8.1% sodium dodecyl sulfate (SDS; Sigma), 1.5 mL of 20% acetic acid solution (pH 3.5), 1.5 mL of 0.8% aqueous solution of thiobarbituric acid (Sigma), and 0.6 mL of double distilled water. This mixture was heated to 95° C. for 60 minutes followed by rapid cooling to room temperature. An organic extraction was performed by adding 1.0 mL of double distilled water and 5.0 mL of n-butanol:pyridine (15:1, v/v), vortexing, and then centrifuging at 4000 rpm for 10 minutes. The water-immiscible (organic) layer was recovered for measurement of absorbance at 532 nm. Experiments were performed using 1,1,3,3,-tetramethoxypropane as a standard, with the level of lipid peroxides expressed as nmol of malondialdehyde (MDA)/mg protein. Protein content was determined by the method of Lowry et. al^38.

The text below walks through data of US5552267A, “Solution for prolonged organ preservation” (priority 1994, dated 1996).

With `Nc1nc2c(nc(Br)n2[C@@H]2O[C@@H]3COP(=O)(O)O[C@H]3[C@H]2O)c(=O)[nH]1` [8-Br-cGMP, 8-bromoguanosine-3'5' cyclic monophosphate], the “concentration of maximal benefit” value in experiment [1] (8-Br-cGMP dose-response, 12 h in LR) came out at 0.5 mM. Further, the “effect on graft preservation (words)” value in experiment [1] (12 h in LR) was “enhanced cardiac preservation in a dose-dependent manner”; in experiment [1] (12 h in LR, listed as 8-bromo-cGMP), “enhanced graft survival”. For the same compound, the “nitric oxide synthase activity after transplantation” value in experiment [2] is reported as “similar”. The “interaction with allosteric binding sites” value in experiment [3] is given as “does not interact with the allosteric binding sites”. The “graft blood flow” value in experiment [4] is “enhanced blood flow”.
Turning to `O=[N+]([O-])OCC(CO[N+](=O)[O-])O[N+](=O)[O-]` [NTG, nitroglycerin], the graft survival in experiment [1] (24-28 h in UW) was found to be 100%; in experiment [1] (12 h in LR) it was 92%. The “concentration of maximal effect” value in experiment [1] (NTG dose-response, 12 h in LR) came out at 0.1 mg/mL. In addition, in experiment [2], the “nitric oxide synthase activity after transplantation” value was “similar”. Besides, in experiment [5], the “graft platelet accumulation” value is “significant decline in both neutrophil and platelet accumulation”. Besides, the “graft oxidant stress, TBARs” value in experiment [6] is listed as “reduced graft oxidant stress”. Also, in experiment [4], the “graft blood flow” value is reported as “enhanced blood flow”.
